Experimental data from US7951530B2, “Cyclic maltosylmaltose, cyclic maltosymaltose-forming enzyme, their preparation and uses” (Kabushiki Kaisha Hayashibara Seibutsu Kagaku Kenkyujo, priority 2003, dated 2011).

Target: T1, Salivary α-amylase (Homo sapiens, UniProt P0DUB6)
T1 sequence (P0DUB6 16-511): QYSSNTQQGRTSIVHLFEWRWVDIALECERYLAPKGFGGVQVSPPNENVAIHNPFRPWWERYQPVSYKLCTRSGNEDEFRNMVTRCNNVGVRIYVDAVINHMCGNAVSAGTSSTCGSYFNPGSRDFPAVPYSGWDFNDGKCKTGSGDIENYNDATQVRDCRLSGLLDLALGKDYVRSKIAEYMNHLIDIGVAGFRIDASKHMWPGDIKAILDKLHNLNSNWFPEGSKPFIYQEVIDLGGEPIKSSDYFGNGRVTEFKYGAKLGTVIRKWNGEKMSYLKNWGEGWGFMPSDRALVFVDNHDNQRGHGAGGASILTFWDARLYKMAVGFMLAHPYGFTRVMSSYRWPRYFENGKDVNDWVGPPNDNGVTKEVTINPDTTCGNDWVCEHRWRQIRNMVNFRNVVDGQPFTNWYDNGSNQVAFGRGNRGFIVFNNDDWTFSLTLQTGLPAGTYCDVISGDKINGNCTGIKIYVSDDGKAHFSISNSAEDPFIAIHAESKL
Description: 43, 23-29 (1990), the digestibility of CMM by salivary α-amylase, artificial gastric juice, pancreas amylase, and small intestinal enzymes were investigated using the powdery hydrous crystalline CMM, obtained by the method in Experiment 14.

OC[C@H]1O[C@@H]2OC[C@H]3O[C@H](O[C@H]4[C@H](O)[C@@H](O)[C@@H](OC[C@H]5O[C@H](O[C@H]1[C@H](O)[C@H]2O)[C@H](O)[C@@H](O)[C@@H]5O)O[C@@H]4CO)[C@H](O)[C@@H](O)[C@@H]3O [CMM, cyclo{>6)-α-D-glucopyranosyl-(1>4)-α-D-glucopyranosyl-(1>6)-α-D-glucopyranosyl-(1>4)-α-D-glucopyranosyl-(1>}]
Degradation rate (%): 0%
